In patent publication US20130142830A1, “Tolerogenic Plasmacytoid Dendritic Cells Co-Expressing Cd8-Alpha And Cd8-Beta And Methods Of Inducing The Differentiation Of Regulatory T Cells Using Same” (UNIVERSITY OF SOUTHERN CALIFORNIA, priority 2011, published 2013):

Columns and labels:
[1] = system: naive OVA-specific CD4+ T cells; assay: In vitro co-culture of pDC subsets with naive OVA-specific CD4+ T cells, Foxp3 and IL-10 by flow cytometry; assay type: cell-based, mouse
Protocol: (a) Flow cytometry of intracellular expression of Foxp3 in CD4^+ T cells cultured with CD8α^− CD8β^− pDCs, CD8α^+ CD8β^− or CD8α^+ CD8β^+ pDCs. Sorted CD8α^− CD8β^−, CD8α^+ CD8β^− or CD8α^+ CD8β^+ pDCs were preincubated 12 hours with either medium or Galectin-3 (10 μg/ml). Cells were then washed and co-cultured with OVA-specific CD4^+ T cells at a 1:10 ratio (pDC:T CD4^+) for 5 days in presence of either OVA323-339 (1 μg/ml) and/or TGF-β (1 ng/ml) as indicated. Cells were subsequently stained with CD3, CD4 and CD25 antibodies fixed, permeabilized and stained with an anti-Foxp3 antibody before flow cytometry analysis. […]
(a) Gene expression of Aldhla1 Aldhla2, and Aldhla3 was assessed by real-time PCR in CD8α^−β^−, CD8α^+β^−, and CD8α^+β^+ pDCs from peripheral lymph nodes or in CD103^− and CD103^+ DCs from mesenteric lymph nodes of Fms-like tyrosine kinase 3-ligand (Flt3-L)-treated mice. […] P-values were calculated with Student's t-test. *P-value <0.05 (CD8α^+β^− pDC and CD8α^+β^+ pDC compared to CD8α^−β^−). ^#P-value <0.05 (CD103^+ cDC compared to CD103^− cDC). […] Cells were subsequently stained with anti-CD11c, anti-mPDCA1, anti-CD8α, and CD8αβ antibodies, and analyzed by flow cytometry to detect RALDH activity. […] Foxp3 expression was analyzed among CD3^+ CD4^+ CD25^+ cells; dot plots are representative of three independent experiments. […]

pDCs = assay: TLR7/TLR9 stimulation of pDC subsets (R848, CpG): co-stimulatory molecules, CD8 expression, IFN-α and IL-10 ELISA; assay type: cell-based, mouse; settings: R848 10 μg/ml or CpG 10 μM, 18 hours
Protocol: (a) Plasmacytoid DCs were isolated by magnetic separation from lymph nodes of Flt3L-treated mice. The surface expression of the costimulation molecules CD80 and CD86 was assessed on CD8α^− CD8β^− pDCs, CD8α^+ CD8β^− pDCs and CD8α^+ CD8β^+ pDCs subtypes after 18 hours of stimulation with R848 (10 μg/ml) or CpG (10 μM). Data are representative of three similar experiments. Shaded histograms represent isotype control antibodies; dashed lines, specific staining of untreated cells; solid black lines, specific staining of CpG treated cells and solid grey lines, specific staining of R848 treated cells. […] Cells were then washed and stained with CD8α and CD8β^− antibodies, APC fluorescence was analyzed by flow cytometry in the CD8α^− CD8β^− pDCs, CD8α^+ CD8β^− pDCs or CD8α^+ CD8β^+ pDCs subpopulations. […] Data are average (mean fluorescence intensity (MFI) at 37° C.)−(MFI at 4° C.)±SEM of three separate experiments. […] The amount of radioactivity related to the number of cells was evaluated in a scintillation counter. […]
The main function of DCs is to prime naïve T cells by presenting antigen and providing additional signals through co-stimulatory molecules and production of cytokines. To address whether the populations of pDCs described herein differ in these functions, we stimulated them with TLR ligands and assessed the expression of co-stimulatory molecules along with the cytokine production. […]

DCs = assay: In vivo expansion of DCs by Flt3L-expressing tumor cells; set-up: species or system mouse; settings: Flt3L treatment of BALB/c mice
Protocol: To test whether an in vivo expansion of the population of DCs affects the expression of CD8α or CD8β at the surface of pDCs, tumor cells expressing Flt3L were transferred into BALB/c mice. Flt3L acts on hematopoietic stem cells and controls their differentiation into DCs, this treatment expands the population of DCs by 15 to 20 fold after 14 days without activating the cells. […] The expression of CD8α and CD8β was assessed simultaneously on pDCs (CD11c^+ BST2^+ cells) and on conventional DCs (cDCs, CD11c^+ BST2^− cells). At the surface of cDCs, only CD8α expression was detected (FIG. 2a). […] Accordingly, with the surface phenotype, CD8α gene expression was detected in CD8α^+β^− pDCs while both CD8α and CD8β genes were overexpressed in the CD8α^+β^+ subset (FIG. 2b). As expected CD8β gene expression was never detected in cDCs (FIG. 2b). […] Our data from B2m knockout mice confirmed the presence of CD8α or CD8β pDC repertoire, similar to the level detected in the wild type mice (FIG. 2c). To further assess the expression of CD8α or CD8β at mRNA level, we performed real time quantitative PCR on the sorted subpopulation of pDCs from B2m knockout mice and confirmed the results obtained in FIG. 2c at the mRNA expression level (FIG. 2d). […]

CN1c2cc3c(cc2N=C(c2ccc(C(=O)O)cc2)c2ccc4ccccc4c21)C(C)(C)CCC3(C)C [LE540]
effect of RALDH inhibitor on conversion of naive CD4+ T cells by CD8α+β+ and CD8α+β− pDCs ([1]; LE540 1 μM with TGF-β): completely blocked the conversion of naïve CD4^+ T cells

CCOCc1nc2c(N)nc3ccccc3c2n1CC(C)(C)O [R848]
expression of CD8α and CD8β on pDCs following TLR stimulation (pDCs): the expression of CD8α and CD8β decreases

Galectin-3
effect of Galectin-3 pre-incubation of pDCs on conversion of naive CD4+ T cells into Foxp3-expressing cells ([1]; Galectin-3 10 μg/ml, 12 hours pre-incubation, TGF-β present): boost the capacity of pDCs to convert naïve CD4^+ T cells into Foxp3-expressing cells

B1: Flt3L: delivered by tumor cells expressing Flt3L; controls differentiation of hematopoietic stem cells into DCs (protein, UniProt P49771 27-235, looked up)
Fms-related tyrosine kinase 3 …: TQDCSFQHSPISSDFAVKIRELSDYLLQDYPVTVASNLQDEELCGGLWRLVLAQRWMERLKTVAGSKMQGLLERVNTEIHFVTKCAFQPPPSCLRFVQTNISRLLQETSEQLVALKPWITRQNFSRCLELQCQPDSSTLPPPWSPRPLEATAPTAPQPPLLLLLLLPVGLLLLAAAWCLHWQRTRRRTPRPGEQVPPVPSPQDLLLVEH
level of expression of CD8α and CD8β on pDCs (DCs): does not significantly affect
